Assay results: patent US20240238217A1, “USE OF CLOFOCTOL FOR THE TREATMENT OF INFLAMMATION” (INSTITUT NATIONAL DE LA SANTÉ ET DE LA RECHERCHE MÉDICALE, priority 2021, published 2024)
Read-outs that look alike come from different tables or passages of the source.

Columns and labels:
[1] = system: IAV H1N1 A/California/04/2009 (pdm09); assay: IAV infection in mice: viral load, lung inflammation, pathology; assay type: in vivo, C57BL/6J mice; settings: 50 mg/kg i.p.
MPI cells = assay: LPS-induced cytokine production by alveolar macrophage MPI cells (ELISA); assay type: cell-based, C57BL/6J mouse; settings: clofoctol added 30 minutes prior to LPS 10 ng/ml, 24 h, supernatant ELISA
Procedure: FIG. 3: Effects of clofoctol treatment on LPS-induced cytokine production by alveolar macrophages. ELISA of IL-1β, IL-12p40, TNFα, and MCP-1 from supernatant of MPI cells pre-treated or not with clofoctol and stimulated or not with LPS during 24 h. The percentage cell viability post treatment is indicated. Significant differences were determined using the two-way ANOVA corrected for Dunnett's multiple comparisons test (viability test) or one-way ANOVA corrected for Dunnett's multiple comparisons test (n=7-11) (**p<0.01; ***p<0.001, ****p<0.0001).
Max Plank Institute (MPI) cells are self-renewing and non-transformed cells originated from fetal liver of C57BL/6J mouse. MPI cells were used as a model of alveolar macrophages, due to their closer profile (Fejer et al., 2013). Cells were cultivated in RPMI Glutamax with 10% FBS, 1% Penicillin/streptomycin, and 30 ng/mL GM-CSF and incubated on 37° ° C.5% CO2. MPI cells were used from passage 6 until passage 30 and they were negative for mycoplasma contamination, which was assessed with MycoAlert™ Mycoplasma Detection Kit (Lonza-Basel, Switzerland). […] Cytokine production was measured from the supernatant of cells after 24 h of stimulation, accordingly to protocol's manufactures for IL-1β, IL-12p40, TNF-α, and MCP-1 (R&D Systems—Minneapolis, MN). […]

SARS-COV-2 [2] = assay type: in vivo, K18-hACE2 transgenic C57BL/6J mice
[3] = system: LPS-induced lung inflammation; assay: LPS-induced lung inflammation in mice (RT-qPCR of lung transcripts); assay type: in vivo, C57BL/6J mice; settings: male mice, 50 mg/kg i.p. 1 h before and 8 h after i.n. LPS 10 μg/mouse, 24 h
Procedure: FIG. 5: Effects of clofoctol treatment on LPS-induced lung inflammation. Male C57BL/6J mice were treated i.p. with clofoctol (50 mg/kg) or vehicle 1 h before and 8 h after i.n. inoculation of LPS (10 μg/mouse) or PBS. Animals were sacrificed 24 h after LPS inoculation. mRNA copy numbers of genes were quantified by RT-qPCR. Data are expressed as fold change over average gene expression in PBS-treated animals. Results are expressed as the mean±SD (n=6). Significant differences were determined using the Mann-Whitney U test (**p<0.01).
C57BL/6 mice were inoculated by the intra-nasal route with LPS (Escherichia coli 0111:B4) at 10 μg/mouse. Clofoctol was injected i.p. 1 h before and 8 h after LPS administration. Mice were sacrificed 24 hrs after LPS inoculation.

[4] = system: PMA-differentiated THP-1 macrophages; assay: LPS-induced cytokine expression in PMA-differentiated THP-1 macrophages (RT-qPCR and ELISA); assay type: cell-based, human; settings: clofoctol 1 hour prior to LPS 100 ng/mL
Procedure: FIG. 4: Effects of clofoctol treatment on LPS-induced cytokine mRNA expression by PMA-differentiated THP-1 macrophages. a, b, c and d) mRNA expression of MCP1, TNFα, IL-6 and IL-1β were quantified by RT-qPCR. Data are expressed as a fold-increase over the mean gene expression level in solvent control wells. (mean+/−SD from 3 experiments in duplicate). Significant differences were determined using the one-way ANOVA corrected for Dunnett's multiple comparisons test (**p<0.01; ***p<0.001, ****p<0.0001). ELISA of MCP1, TNFα and IL-6 (e, f and g) from supernatant of THP-1 cells pre-treated or not with Clofoctol or Dexamethasone and stimulated with LPS during 24 h. Results are expressed as the concentration of cytokine in pg/mL. (mean from one experiment in duplicate).
THP-1 designates a spontaneously immortalized monocyte-like cell line, derived from the peripheral blood of a childhood case of acute monocytic leukemia. Cells were cultivated in RPMI with HEPES without Glutamine complemented with 2 mM Glutamine, 10% FBS and 1% Penicillin/streptomycin and incubated at 37° C.-5% CO2. THP1 cells were used from passage 7 until passage 14 and they were negative for mycoplasma contamination, which was assessed with MycoAlert™ Mycoplasma Detection Kit (Lonza-Basel, Switzerland). […] In THP1, The levels of human cytokines were measured after 24 h of stimulation in the collected supernatants with human CCL2/MCP-1, IL-6 and TNF-α Duoset ELISA (R&D systems, Minneapolis, MN) according to the manufacturer's protocols.
Total RNA was extracted with NucleoSpin® RNA kit (Macherey-Nagel, Hoerdt, Germany). […] Relative quantification of MCP1, TNF-α, IL-6 and IL-1β was performed using the gene coding glyceraldehyde 3-phosphate dehydrogenase (GAPDH). Relative mRNA levels (2-ΔΔCt) were determined by comparing (a) the PCR cycle thresholds (Ct) for the gene of interest and the house keeping gene GAPDH (ΔCt) and (b) ΔCt values for treated and control groups (ΔΔCt). Data are expressed as a fold-increase over the mean gene expression level in solvent control wells.

SARS-CoV-2 [5] = assay: In vitro antiviral activity (IC95) of clofoctol; assay type: cell-based
[6] = system: IAV H1N1 A/California/04/2009 (pdm09); assay: Long-term sequela (fibrosis) imposed by IAV infection in mice; settings: 50 mg/kg i.p. once a day for 4 days
[7] = female C57BL/6 mice, single i.p. dose 62.5 mg/kg
[8] = female mice, day 4 post-infection

CC(C)(C)CC(C)(C)c1ccc(O)c(Cc2ccc(Cl)cc2Cl)c1 [clofoctol, 2-[(2,4-dichlorophenyl)methyl]-4-(2,4,4-trimethylpentan-2-yl)phenol]
IL-6 and IL-12p40 production in lungs ([1]; ELISA, 4 dpi): Reduced | transcript expression of interferon-stimulated genes Mx1, ISG15 and Cxcl10 ([1]; RT-qPCR): reduced | viral RNA yields by RT-qPCR ([1]; day 2 and 4 post-infection): trend in reduced viral load | infectious viral load in the lungs ([1]; day 2 and day 4 post-infection, titration on MDCK cells): slightly reduced | expression of transcript encoding TNFα in lungs ([1]; day 2 post-infection, RT-qPCR): to a lower extent | expression of transcripts encoding IL-6, IL-12p40, Ccl2, IFN-γ in lungs ([1]; day 2 post-infection, RT-qPCR): reduced | lung pathology (histology, inflammation scoring) ([1]; day 4 post-infection, hematoxylin and eosin): only a minimal interstitial inflammation | production of inflammatory cytokines IL-1β, IL-12p40 and TNF-α (MPI cells): inhibited, in a dose dependent manner | clofoctol concentration in the lungs (62.5 mg/kg i.p. twice daily during two days, 1 h after the fourth administration): 67 µM | plasma concentration relative to lung concentration [7]: seven times lower | time lung concentration remained above this level (61 μM) [7]: ~4 h | clofoctol concentration in the lungs (female C57BL/6 mice, single i.p. dose 62.5 mg/kg, 30 min after injection): up to 61 μM | viral load by RT-qPCR (SARS-COV-2 [2]; female mice treated during the first 2 days, day 4 post-inoculation): decrease in viral load | viral RNA yields in lungs by RT-qPCR (SARS-COV-2 [2]; female mice, 62.5 mg/kg i.p., day 2 post-infection): reduced viral load | expression of transcripts encoding IL-6, TNFα, IL12p40, IFNβ, IFNγ and ISG Mx1, Ifi44, ISG15 in lungs (SARS-COV-2 [2]; female mice, 62.5 mg/kg i.p., day 2 post-infection, RT-qPCR): markedly reduced | reduction of infectious viral load in the lungs vs vehicle (SARS-COV-2 [2]; female mice, 62.5 mg/kg i.p., day 2 post-infection, titration on Vero-81 cells): more than 1.1 log10 | expression of transcripts encoding inflammatory markers (SARS-COV-2 [2]; [8]): strongly decreased | lung pathology (histology) (SARS-COV-2 [2]; [8]): only a minimal interstitial inflammation | inflammatory score of lung sections (SARS-COV-2 [2]; female mice, day 4 post-infection, blinded scoring): reduces the inflammatory score | infection-induced drop of Ocln and ZO1 transcript levels (epithelial barrier markers) (SARS-COV-2 [2]; female mice, day 4 post-infection, lungs): significantly reduced | expression of transcripts encoding IL-6, TNFα, IL-1β, IFN-γ, IL12p40 and CCL2 in lungs [3]: markedly reduced | expression of MCP1 and IL-6 genes ([4]; 5 hours, RT-qPCR): significantly reducing | MCP1 and IL-6 protein in supernatant ([4]; 24 hours, ELISA): significantly reducing | IL1-β and TNF-α expression/production ([4]; RT-qPCR (5 hours) and TNFα ELISA (24 hours)): not significantly modulating | IC95 measured in vitro (SARS-CoV-2 [5]): ~10 µM | lung fibrosis (Red Sirius staining) ([6]; 28 days post-infection): tended to develop less fibrosis | body weight ([6]; IAV-infected mice): reduces body weight
